Source: article PMC4139061, “Structural basis of nucleoside and nucleoside drug selectivity by concentrative nucleoside transporters” (eLife, 2014)
“And” between values parts separate entries of the source, which are not always exact repeats. Equal entries are not always repeated.

Columns and labels:
[1] = target: T1, vcCNT (Vibrio cholerae, UniProt Q9KPL5); experiment: biochemical; type: binding
Experimental: The fluorescence anisotropy after each addition was measured. Each titration was performed at least three times. The data for the three titrations were simultaneously fit to a one-site competitive binding model based off of Wang's method ([Wang, 1995]) using nonlinear least-squares analysis in GraphPad Prism to obtain a dissociation constant and standard error.

[2] = test system: hCNTs; settings: cited from earlier work
[3] = target: hCNT3 (375L/446V) (Homo sapiens, UniProt Q9HAS3, L446V/V375L); experiment: two-electrode voltage-clamp total charge in Xenopus oocytes expressing hCNT3 (375L/446V); type: cell-based; settings: 400 μM nucleoside; hCNT3 (375L/446V)-expressing Xenopus oocytes; mean of Exp. 1-11
hCNT3 (375L/446V), sequence (Q9HAS3 whole entry V375L/L446V): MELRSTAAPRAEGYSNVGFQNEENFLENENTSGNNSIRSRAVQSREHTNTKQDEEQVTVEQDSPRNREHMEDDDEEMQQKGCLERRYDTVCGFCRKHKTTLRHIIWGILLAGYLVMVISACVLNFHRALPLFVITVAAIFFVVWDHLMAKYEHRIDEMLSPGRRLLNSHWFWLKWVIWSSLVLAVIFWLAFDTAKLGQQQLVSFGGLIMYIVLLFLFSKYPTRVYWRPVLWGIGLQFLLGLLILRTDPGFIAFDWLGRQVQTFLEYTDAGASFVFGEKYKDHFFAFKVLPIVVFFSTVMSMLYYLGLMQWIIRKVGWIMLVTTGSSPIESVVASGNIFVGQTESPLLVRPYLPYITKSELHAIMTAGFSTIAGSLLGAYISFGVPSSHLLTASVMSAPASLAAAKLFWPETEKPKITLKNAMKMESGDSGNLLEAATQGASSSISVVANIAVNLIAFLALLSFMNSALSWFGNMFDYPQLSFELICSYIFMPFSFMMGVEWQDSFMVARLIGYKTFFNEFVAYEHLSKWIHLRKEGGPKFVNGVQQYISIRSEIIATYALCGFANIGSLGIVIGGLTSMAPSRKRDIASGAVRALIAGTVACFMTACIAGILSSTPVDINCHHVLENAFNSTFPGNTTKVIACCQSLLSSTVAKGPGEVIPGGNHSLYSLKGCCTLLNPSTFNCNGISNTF
Source text: In the paradigm of the alternating-access mechanism of sodium-coupled symporters ([Krishnamurthy et al., 2009]), substrate release is achieved by the transition from the inward-facing occluded to the inward-facing open state (Figure 6C).
(§1) Figure 6. […] (A) Model of hCNT3 nucleo-pocket. […] (B) Model of hCNT1 nucleo-pocket. […] (C) Hypothetical alternating-access mechanism of vcCNT. A cartoon representation of the different conformational states along the transport cycle is depicted. The transport domain (including HP1, HP2, TM4b, and TM7b) and TM6 are shown as cylinders. […] The nucleo-pocket in the inward-occluded conformation (bottom right) is located between TM6 and TM4 and is marked with a green star. The inward-occluded conformation is derived from the crystal structures of vcCNT. All other conformations are purely hypothetical. The transition between inward- and outward-facing conformations has been proposed to be achieved by a rigid-body movement of the transport domain across TM6 ([Johnson et al., 2012]). Extracellular and intracellular gating likely involves slight rearrangements of HP2/TM4b and HP1/TM7b, respectively. […] See Figure 6—source data 1 for total charge source data. DOI: http://dx.doi.org/10.7554/eLife.03604.024 Figure 6—source data 1. Total charge data. Total charge transported (μC) was calculated as the area under the curve of the current trace after application of the indicated nucleoside to hCNT-expressing Xenopus oocytes. Each row represents a separate experiment done using a different oocyte. The ratios of the total charge transported for the nucleosides are shown in the last columns.
The genes coding for the three hCNTs and vcCNT were cloned into a pGEM-HE vector. Plasmids were linearized using either SphI or NheI, and mRNA was transcribed using the mMESSAGE mMACHINE T7 Transcription Kit (Ambion, Grand Island, NY). […]
The oocyte-recording chamber was gravity-perfused with ND96 buffer at a rate of 2 ml/min. Membrane currents were measured using an Oocyte Clamp (OC-725C; Warner Instruments, Hamden, CT). […]

[4] = target: hCNT1 (353V/424L) (Homo sapiens, UniProt O00337, L353V/V424L); experiment: two-electrode voltage-clamp total charge in Xenopus oocytes expressing hCNT1 (353V/424L); type: cell-based; settings: 400 μM nucleoside, hCNT1 (353V/424L)-expressing Xenopus oocytes
hCNT1 (353V/424L), sequence (O00337 whole entry L353V/V424L): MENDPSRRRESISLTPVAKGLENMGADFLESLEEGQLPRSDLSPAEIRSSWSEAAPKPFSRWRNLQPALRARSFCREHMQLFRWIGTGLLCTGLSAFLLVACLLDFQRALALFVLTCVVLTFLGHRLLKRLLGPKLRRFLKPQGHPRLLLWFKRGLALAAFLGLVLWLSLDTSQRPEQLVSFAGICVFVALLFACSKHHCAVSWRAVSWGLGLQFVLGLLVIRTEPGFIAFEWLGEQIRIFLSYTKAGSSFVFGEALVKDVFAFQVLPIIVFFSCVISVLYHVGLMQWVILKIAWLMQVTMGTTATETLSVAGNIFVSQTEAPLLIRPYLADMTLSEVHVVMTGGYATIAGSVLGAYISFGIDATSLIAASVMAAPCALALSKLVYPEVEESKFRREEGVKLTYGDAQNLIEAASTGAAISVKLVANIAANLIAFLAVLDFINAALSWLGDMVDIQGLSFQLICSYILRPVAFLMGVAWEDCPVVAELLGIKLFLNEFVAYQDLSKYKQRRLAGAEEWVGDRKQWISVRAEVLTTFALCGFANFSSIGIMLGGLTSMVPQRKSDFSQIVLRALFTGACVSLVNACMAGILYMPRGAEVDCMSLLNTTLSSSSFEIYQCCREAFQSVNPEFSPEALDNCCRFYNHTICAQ
Source text: as §1
(§2) The genes coding for the three hCNTs and vcCNT were cloned into a pGEM-HE vector. Plasmids were linearized using either SphI or NheI, and mRNA was transcribed using the mMESSAGE mMACHINE T7 Transcription Kit (Ambion, Grand Island, NY). Defolliculated Xenopus laevis oocytes were purchased from Ecocyte Bioscience (Austin, TX). Individual oocytes were injected with 40 ng of mRNA using a 10-μl microdispenser (Drummond Scientific, Broomall, PA) fitted with a tapered glass pipette tip and incubated at 17 °C for 4–5 days in ND96 buffer (96 mM NaCl, 2 mM KCl, 1 mM MgCl2, 1.8 mM CaCl2, and 5 mM HEPES pH 7.5) with 0.1% penicillin and streptomycin before recording.
(§3) The oocyte-recording chamber was gravity-perfused with ND96 buffer at a rate of 2 ml/min. Membrane currents were measured using an Oocyte Clamp (OC-725C; Warner Instruments, Hamden, CT). Individual oocytes were penetrated with two microelectrodes filled with 3 M KCl (0.5–1.0 MΩ). All electrophysiological experiments were conducted at room temperature. The OC-725C Oocyte Clamp was computer-interfaced via an Axon Digidata 1550 and controlled by Axoscope software (Molecular Devices, Sunnyvale, CA). The current signals were filtered at 20 Hz and sampled at intervals of 20 ms.

[5] = target: T2, hCNT1 (Homo sapiens, UniProt O00337); experiment: two-electrode voltage-clamp of Na+ currents / total charge in Xenopus oocytes expressing hCNT1; type: cell-based; settings: 200 μM nucleoside; hCNT1-expressing Xenopus oocytes; mean of Exp. 1-11
T2 sequence (O00337 1-649): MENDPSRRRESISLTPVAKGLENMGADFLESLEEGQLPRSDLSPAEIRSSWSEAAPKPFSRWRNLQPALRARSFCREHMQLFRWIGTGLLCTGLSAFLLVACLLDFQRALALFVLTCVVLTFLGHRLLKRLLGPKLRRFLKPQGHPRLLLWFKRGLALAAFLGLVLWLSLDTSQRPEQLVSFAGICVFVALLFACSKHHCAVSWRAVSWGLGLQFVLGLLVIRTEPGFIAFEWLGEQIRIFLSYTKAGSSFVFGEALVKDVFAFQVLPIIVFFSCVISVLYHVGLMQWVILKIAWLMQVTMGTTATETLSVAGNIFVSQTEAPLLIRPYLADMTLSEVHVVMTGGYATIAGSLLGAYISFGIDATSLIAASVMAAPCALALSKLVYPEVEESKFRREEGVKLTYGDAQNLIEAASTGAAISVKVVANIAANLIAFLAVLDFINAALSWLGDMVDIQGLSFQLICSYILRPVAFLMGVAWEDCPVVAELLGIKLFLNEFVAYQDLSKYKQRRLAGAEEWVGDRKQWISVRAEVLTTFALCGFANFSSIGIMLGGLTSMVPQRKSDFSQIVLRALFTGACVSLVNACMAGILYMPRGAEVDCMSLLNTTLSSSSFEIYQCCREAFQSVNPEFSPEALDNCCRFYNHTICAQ
Source text: (§4) To detect nucleoside transport by hCNTs, we turned to two-electrode voltage-clamp electrophysiological recording. Because hCNTs are Na^+-nucleoside symporters, one can measure the current generated by the Na^+ transport that is coupled with nucleoside transport. We injected Xenopus oocytes with mRNA coding for each of the hCNTs and measured inward Na^+ currents elicited by the addition of different nucleosides to the extracellular side.
as §2
as §3, with “ms. The signals were filtered at 0.5 Hz by use of pCLAMP 10.4 software for data presentation. […] Cells were discarded if resting membrane potentials were unstable or more positive than −30 mV. Oocyte membrane potentials were clamped at −90 mV for holding potentials to measure transporter-generated currents. All data are shown as means ± SEM.” for “ms.”

[6] = target: T3, hCNT3 (Homo sapiens, UniProt Q9HAS3); experiment: two-electrode voltage-clamp of Na+ currents / total charge in Xenopus oocytes expressing hCNT3; type: cell-based
T3 sequence (Q9HAS3 1-691): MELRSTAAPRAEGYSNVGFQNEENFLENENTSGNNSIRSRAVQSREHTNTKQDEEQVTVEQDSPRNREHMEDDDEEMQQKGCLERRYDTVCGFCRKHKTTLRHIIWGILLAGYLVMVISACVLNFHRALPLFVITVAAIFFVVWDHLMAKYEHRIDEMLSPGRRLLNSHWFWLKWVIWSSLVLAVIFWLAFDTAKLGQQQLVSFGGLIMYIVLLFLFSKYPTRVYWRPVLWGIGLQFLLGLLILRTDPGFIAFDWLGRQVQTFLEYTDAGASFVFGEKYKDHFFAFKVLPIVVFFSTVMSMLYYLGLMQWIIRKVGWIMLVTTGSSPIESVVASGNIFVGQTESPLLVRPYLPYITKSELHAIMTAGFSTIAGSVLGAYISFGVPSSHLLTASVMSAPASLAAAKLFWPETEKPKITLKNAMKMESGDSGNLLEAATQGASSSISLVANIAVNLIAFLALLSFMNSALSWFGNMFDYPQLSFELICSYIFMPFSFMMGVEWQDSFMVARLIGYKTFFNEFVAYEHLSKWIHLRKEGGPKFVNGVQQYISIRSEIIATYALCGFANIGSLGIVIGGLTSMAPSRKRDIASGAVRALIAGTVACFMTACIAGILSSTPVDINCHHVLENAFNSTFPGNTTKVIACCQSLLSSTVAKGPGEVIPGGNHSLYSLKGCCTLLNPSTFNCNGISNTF
Source text: as §4, §2
as §3, with “ms. The signals were filtered at 0.5 Hz by use of pCLAMP 10.4 software for data presentation. […] Cells were discarded if resting membrane potentials were unstable or more positive than −30 mV. Oocyte membrane potentials were clamped at −90 mV for holding potentials to measure transporter-generated currents. All data are shown as means ± SEM.” for “ms.”

[7] = target: hCNT2 (Homo sapiens, UniProt O43868); experiment: two-electrode voltage-clamp of Na+ currents in Xenopus oocytes expressing hCNT2; type: cell-based; settings: data not shown
hCNT2, sequence (O43868 whole entry): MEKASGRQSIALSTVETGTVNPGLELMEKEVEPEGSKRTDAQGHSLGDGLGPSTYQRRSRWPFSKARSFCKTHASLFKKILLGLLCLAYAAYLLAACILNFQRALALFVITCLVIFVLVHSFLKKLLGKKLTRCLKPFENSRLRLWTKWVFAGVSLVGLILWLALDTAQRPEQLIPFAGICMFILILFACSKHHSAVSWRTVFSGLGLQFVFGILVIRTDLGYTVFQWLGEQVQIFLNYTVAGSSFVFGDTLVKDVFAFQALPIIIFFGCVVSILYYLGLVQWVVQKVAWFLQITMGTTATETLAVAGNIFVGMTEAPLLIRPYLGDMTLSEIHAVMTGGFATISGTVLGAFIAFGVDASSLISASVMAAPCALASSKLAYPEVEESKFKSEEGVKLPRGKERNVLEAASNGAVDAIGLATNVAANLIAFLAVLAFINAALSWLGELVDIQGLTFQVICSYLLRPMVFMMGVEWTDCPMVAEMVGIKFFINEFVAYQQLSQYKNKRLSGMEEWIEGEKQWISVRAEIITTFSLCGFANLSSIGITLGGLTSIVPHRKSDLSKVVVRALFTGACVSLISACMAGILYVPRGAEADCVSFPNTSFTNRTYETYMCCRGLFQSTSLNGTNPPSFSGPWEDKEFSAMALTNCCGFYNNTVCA
Source text: as §4, §2
The oocyte-recording chamber was gravity-perfused with ND96 buffer at a rate of 2 ml/min. Membrane currents were measured using an Oocyte Clamp (OC-725C; Warner Instruments, Hamden, CT). Individual oocytes were penetrated with two microelectrodes filled with 3 M KCl (0.5–1.0 MΩ). […]

[8] = target: T1, vcCNT; experiment: biochemical; type: binding; settings: KD

T1 sequence (Q9KPL5 entry or part of it): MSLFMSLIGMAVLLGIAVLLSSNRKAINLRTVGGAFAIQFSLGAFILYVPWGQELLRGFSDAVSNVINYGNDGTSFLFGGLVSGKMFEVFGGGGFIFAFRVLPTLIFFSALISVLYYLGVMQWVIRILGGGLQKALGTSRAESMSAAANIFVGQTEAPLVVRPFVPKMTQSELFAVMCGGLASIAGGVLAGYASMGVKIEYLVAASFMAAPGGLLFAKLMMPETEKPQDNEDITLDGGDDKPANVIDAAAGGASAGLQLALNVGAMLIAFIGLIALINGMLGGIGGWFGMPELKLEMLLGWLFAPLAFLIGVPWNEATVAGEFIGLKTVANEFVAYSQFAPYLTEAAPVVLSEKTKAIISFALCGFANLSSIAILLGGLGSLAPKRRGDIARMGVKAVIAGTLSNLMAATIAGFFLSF

**Q.** Which Kd [1] does the source give for `O=c1ccn([C@H]2C[C@H](O)[C@@H](CO)O2)c(=O)[nH]1` [2′-deoxyuridine] here?
**A.** 170 ± 10 µM

**Q.** With `Cn1c(=O)ccn([C@@H]2O[C@H](CO)[C@@H](O)[C@H]2O)c1=O` [3-methyluridine] as the molecule, how does the Kd [1] read?
**A.** 520 ± 80 µM

**Q.** Which Kd [1] does the source give for `O=c1ccn([C@@H]2O[C@H](CO)C[C@H]2O)c(=O)[nH]1` [3′-deoxyuridine] here?
**A.** > 2800 µM

**Q.** With `C[C@H]1O[C@@H](n2ccc(=O)[nH]c2=O)[C@H](O)[C@@H]1O` [5'-deoxyuridine] as the molecule, how does the Kd [1] read?
**A.** > 2800 µM

**Q.** With `O=c1[nH]c(=O)n([C@@H]2O[C@H](CO)[C@@H](O)[C@H]2O)cc1Cl` [5-chlorouridine] as the molecule, how does the Kd [1] read?
**A.** 14 ± 1 µM

**Q.** Which Kd [1] does the source give for `O=c1[nH]c(=O)n([C@@H]2O[C@H](CO)[C@@H](O)[C@H]2O)cc1F` [5-fluorouridine] here?
**A.** 16 ± 1 µM

**Q.** What about the “KD lower than the KD for uridine” value ([1]; fold, vcCNT) of the same molecule?
**A.** twofold

**Q.** For `O=c1[nH]c(=O)n([C@@H]2O[C@H](CO)[C@@H](O)[C@H]2O)cc1I` [5-iodouridine], which Kd [1] is on record?
**A.** 58 ± 5 µM

**Q.** For `Cc1cn([C@@H]2O[C@H](CO)[C@@H](O)[C@H]2O)c(=O)[nH]c1=O` [5-methyluridine], which Kd [1] is on record?
**A.** 61 ± 7 µM

**Q.** With `Nc1ncnc2c1ncn2[C@@H]1O[C@H](CO)[C@@H](O)[C@H]1O` [adenosine] as the molecule, how does the Kd [1] read?
**A.** 470 ± 100 µM

**Q.** Which “binding and transport by hCNTs” value ([2]; ref Clarke et al., 2006) does the source give for `Nc1ccn([C@@H]2O[C@H](CO)[C@@H](O)[C@@H]2O)c(=O)n1` [cytarabine] here?
**A.** no significant binding and transport

**Q.** Which results are given for `Nc1ccn([C@@H]2O[C@H](CO)[C@@H](O)C2(F)F)c(=O)n1` [gemcitabine]?
**A.** Total charge transported, Mean [3]: 5.697 μC; Total charge transported, Mean ([4]; mean of Exp. 1-8): 0.692 μC; Total charge transported ([4]; single oocyte, listed as Gem): 0.743 μC and 0.542 μC and 0.572 μC and 0.858 μC and 0.563 μC and 0.586 μC and 0.813 μC; Total charge transported, Mean [5]: 0.127 μC; Total charge transported, Mean ([6]; 200 μM nucleoside, hCNT3-expressing Xenopus oocytes, mean of Exp. 1-14): 7.084 μC; Na+ current on addition of nucleoside ([6]; hCNT3-expressing oocytes, 200 μM): induced Na^+ currents; KD higher than that for cytidine [1]: ~22 fold; transport by hCNT2 [7]: transported neither compound

**Q.** Which Kd [8] does the source give for `Cc1cc2cn([C@@H]3O[C@H](CO)[C@@H](O)[C@H]3O)c(=O)nc2[nH]1` [pyrrolo-cytidine, reference compound] here?
**A.** 0.9 µM and 0.94 µM

**Q.** For `NC(=O)c1ncn([C@@H]2O[C@H](CO)[C@@H](O)[C@H]2O)n1` [ribavirin], which Kd [1] is on record?
**A.** 1530 µM

**Q.** For `O=c1ccn([C@@H]2O[C@H](CO)[C@@H](O)[C@H]2O)c(=O)[nH]1` [uridine], which Km ([2]; reported Km values, ref Molina-Arcas et al., 2009) is on record?
**A.** 22 to 80 µM

**Q.** For `O=c1ncccn1[C@@H]1O[C@H](CO)[C@@H](O)[C@H]1O` [zebularine], which Kd [1] is on record?
**A.** 120 ± 5 µM

**Q.** What about the “loss of binding affinity relative to uridine” value ([1]; fold, vcCNT) of the same molecule?
**A.** threefold
